Data as given in patent US20240108618A1, “KRAS G12C INHIBITOR DOSING REGIMENS” (Eli Lilly and Company, priority 2022, published 2024).
“And” between values parts separate entries of the source, which are not always exact repeats. Equal entries are not always repeated. Marks after values point to notes of the source that are not given here.

Tests used:
[1] = NCT04956640 Phase 1a clinical pharmacokinetics, monotherapy
Source text: (§1) NCT04956640 includes Phase 1a dose escalation (Part A of NCT04956640, see Table 3) followed by a Phase 1b dose expansion (Parts B to E of NCT04956640, see Table 4). […] Phase 1b dose expansion will include 12 cohorts (See Table 4) to further evaluate safety and clinical activity.

[2] = test system: KRAS G12C-mutant advanced CRC; experiment: NCT04956640 Phase 1b Cohort C2 (with cetuximab) clinical response (BOR, ORR, DCR, DOR, TTR, % change from baseline, treatment duration); format: in vivo, human; set-up: key to Best Response: CR: complete response; PR: partial response; uPR: a partial response pending confirmation; SD: stable disease; PD: progressive disease; NE: not estimable; settings: for Duration of response (DOR) <6 months / Overall response status: Censored / Reason censored: Alive without documented disease progression / Time to response (TTR) <2 months: Phase 1b Cohort C2 responders
Method: The term “BOR” as used herein refers to best overall response based on investigator assessments using RECIST criteria (version 1.1). The minimum duration for BOR of SD is at least 6 weeks after the date of first dose of study drug.
The term “DOR” as used herein refers to duration of response, wherein DOR in months is calculated as the event or censoring date minus the response start date plus 1 day divided by 30.4375.
The term “ORR” as used herein refers to objective response rate, wherein objective response rate is the proportion of patients with BOR of CR or PR. Objective response rate, unconfirmed, is the proportion of patients with BOR of CR, PR, or uPR.
The term “TTR” as used herein refers to time to response, wherein TTR in months is calculated as response start date minus first dose date plus 1 day divided by 30.4375.
as §1

UM-UC-3 = UM-UC-3 (bladder) xenograft model; format: in vivo, mouse
Method: For xenograft models of H1373, HCC44, MiaPaca-2, SW1463, SW837, KYSE-410 and UM-UC-3, typically 5-10×10^6 cells in a 1:1 matrigel mix (0.2 mL total volume) are implanted by subcutaneous injection in hind leg of nude mice. […] Treatment is initiated with oral administration (gavage) of testing compound or vehicle (20% captisol, 25 mM phosphate, pH2.0) in 0.2 mL volume when tumor size reaches approximately 200-300 mg. Tumor growth and body weight are monitored over time to evaluate efficacy and signs of toxicity. For EL3187 PDX model, frozen vials containing tumor fragments are thawed at 37° C. in a water bath. The tumor fragments are transferred to 50 mL Falcon tube and the ice cold DMEM medium is slowly added into the tube to a total volume of 35 mL. Then the tumor fragments are centrifuged at 130×g for 2 minutes at 4° C. and supernatant is aspirated. This washing step is repeated twice and the tumor fragments are resuspended in 10 mL DMEM for implantation into athymic nude-Foxn1nu mice (Envigo RMS, Inc., Mount Comfort, Indiana). Once tumor volumes reach 800 to 1000 mm^3, animals are sacrificed and tumors are harvested using aseptic technique. Fresh tumors are cut into 10 to 15 mm^3 fragments and placed into cold Gibco hibernate medium. The tumor fragments are subcutaneously implanted into animals with a 10 g trochar needle. When tumor size reaches 200 to 300 mm^3, the animals are randomized for compound treatment.
Among models listed in Table 2, EL3187 is a patient-derived xenograft (PDX) model, and all other are tumor xenograft models.

[3] = Phase 1b Cohort C2, Total (N = 11)
[4] = Phase 1b Cohort C2, individual patients, starting dose 100 BID, no prior KRAS G12Ci, listed as compound of Formula I
[5] = Phase 1b Cohort C2, individual patients, starting dose 150 BID, no prior KRAS G12Ci, listed as compound of Formula I
[6] = Phase 1b Cohort C2, starting dose 100 mg BID (N = 6)
[7] = Phase 1b Cohort C2, starting dose 150 mg BID (N = 5)
[8] = starting dose 100 mg BID (N = 6)
[9] = starting dose 150 mg BID (N = 5)

C=CC(=O)N1CCN2C(=O)c3cc(F)c(-c4ccc(F)c5sc(N)c(C#N)c45)c(Cl)c3OCC[C@H]2C1 (single isomer, unassigned) [Formula I]
AUC ([1]; 50 mg BID): 634 (53%) ng.h/mL
Cmax ([1]; 50 mg BID): 144 (45%) ng/ml
Ctrough-Cmin ([1]; 50 mg BID): 23.8 (90%)^c ng/mL
t½ ([1]; 50 mg BID): 3.03 (41%)^c h
AUC ([1]; 100 mg BID): 1475 (77%) ng.h/mL
Cmax ([1]; 100 mg BID): 305 (75%) ng/ml
Ctrough-Cmin ([1]; 100 mg BID): 44.9 (73%) ng/mL
Ctrough-Cmin compared with TEC90 ([1]; 100 mg BID): > 25 ng/mL
t½ ([1]; 100 mg BID): 3.01 (33%)^b h
AUC ([1]; 150 mg BID): 1795 (47%) ng.h/mL
Cmax ([1]; 150 mg BID): 368 (51%) ng/ml
Ctrough-Cmin ([1]; 150 mg BID): 54.5 (60%) ng/mL
Ctrough-Cmin compared with TEC90 ([1]; 150 mg BID): > 25 ng/mL
t½ ([1]; 150 mg BID): 3.41 (32%) h
AUC ([1]; 200 mg BID): 1372 (59%) ng.h/mL
Cmax ([1]; 200 mg BID): 325 (61%) ng/ml
Ctrough-Cmin ([1]; 200 mg BID): 40.3 (73%) ng/mL
Ctrough-Cmin compared with TEC90 ([1]; 200 mg BID): > 25 ng/mL
t½ ([1]; 200 mg BID): 2.35 (58%) h
Best overall response (BOR): Complete Response (CR) [2, 3]: 0 (0.0) n (%)
Best overall response (BOR): Not Evaluable (NE) [2, 3]: 0 (0.0) n (%)
Best overall response (BOR): Partial Response (PR) [2, 3]: 3 (27.3) n (%)
Best overall response (BOR): Partial Response, pending confirmation and ongoing (uPR) [2, 3]: 2 (18.2) n (%)
Best overall response (BOR): Progressive Disease (PD) [2, 3]: 0 (0.0) n (%)
Disease control rate (CR + PR + iPR + SD), Number of patients [2, 3]: 11 (100.0) n (%)
Objective response rate (CR + PR), Number of patients [2, 3]: 3 (27.3) n (%)
Objective response rate, confirmed and unconfirmed (CR + PR + uPR), Number of patients [2, 3]: 5 (45.5) n (%)
Patients with best overall response of CR or PR [2, 3]: 3 (27.3) N′ (%)
Time to response (months), Interquartile range [2, 3]: 0.33 months
Time to response (months), Median [2, 3]: 1.31 months
Time (months) of Progressive Disease ([2]; Phase 1b Cohort C2, individual patients, starting dose 100 BID, no prior KRAS G12Ci): 4.4 months
% Change from Baseline in Sum of Diameters for all Target Lesions [2, 4]: −22.0% and −23.4% and −38.9% and −48.7% and −55.4% and −67.6%
Best Response [2, 4]: SD (3×) and PR Confirmed (3×)
Time (months) of Partial Response - Confirmed [2, 4]: 1.3 months and 1.6 months and 1.2 months
% Change from Baseline in Sum of Diameters for all Target Lesions [2, 5]: −13.6% and −19.4% and −36.7% and −45.7% and −5.7%
Best Response [2, 5]: SD (3×) and PR Pending (2×)
Time (months) of Partial Response - Pending Confirmation and Ongoing [2, 5]: 2.1 months and 1.4 months
Best overall response (BOR): Complete Response (CR) [2, 6]: 0 (0.0) n (%)
Best overall response (BOR): Not Evaluable (NE) [2, 6]: 0 (0.0) n (%)
Best overall response (BOR): Partial Response (PR) [2, 6]: 3 (50.0) n (%)
Best overall response (BOR): Partial Response, pending confirmation and ongoing (uPR) [2, 6]: 0 (0.0) n (%)
Best overall response (BOR): Progressive Disease (PD) [2, 6]: 0 (0.0) n (%)
Disease control rate (CR + PR + iPR + SD), Number of patients [2, 6]: 6 (100.0) n (%)
Objective response rate (CR + PR), Number of patients [2, 6]: 3 (50.0) n (%)
Objective response rate, confirmed and unconfirmed (CR + PR + uPR), Number of patients [2, 6]: 3 (50.0) n (%)
Patients with best overall response of CR or PR [2, 6]: 3 (50.0) N′ (%)
Time to response (months), Interquartile range [2, 6]: 0.33 months
Time to response (months), Median [2, 6]: 1.31 months
Best overall response (BOR): Complete Response (CR) [2, 7]: 0 (0.0) n (%)
Best overall response (BOR): Not Evaluable (NE) [2, 7]: 0 (0.0) n (%)
Best overall response (BOR): Partial Response (PR) [2, 7]: 0 (0.0) n (%)
Best overall response (BOR): Partial Response, pending confirmation and ongoing (uPR) [2, 7]: 2 (40.0) n (%)
Best overall response (BOR): Progressive Disease (PD) [2, 7]: 0 (0.0) n (%)
Disease control rate (CR + PR + iPR + SD), Number of patients [2, 7]: 5 (100.0) n (%)
Objective response rate (CR + PR), Number of patients [2, 7]: 0 (0.0) n (%)
Objective response rate, confirmed and unconfirmed (CR + PR + uPR), Number of patients [2, 7]: 2 (40.0) n (%)
Patients with best overall response of CR or PR [2, 7]: 0 (0.0) N′ (%)
Duration of response (DOR) <6 months ([2]; Total (N = 11)): 3 (100.0) n (%)
Overall response status: Censored ([2]; Total (N = 11)): 3 (100.0) n (%)
Reason censored: Alive without documented disease progression ([2]; Total (N = 11)): 3 (100.0) n (%)
Time to response (TTR) <2 months ([2]; Total (N = 11)): 3 (100.0) n (%)
Duration of response (DOR) <6 months [2, 8]: 3 (100.0) n (%)
Overall response status: Censored [2, 8]: 3 (100.0) n (%)
Reason censored: Alive without documented disease progression [2, 8]: 3 (100.0) n (%)
Time to response (TTR) <2 months [2, 8]: 3 (100.0) n (%)
Duration of response (DOR) <6 months [2, 9]: 0 (NE) n (%)
Overall response status: Censored [2, 9]: 0 (NE) n (%)
Reason censored: Alive without documented disease progression [2, 9]: 0 (NE) n (%)
Time to response (TTR) <2 months [2, 9]: 0 (NE) n (%)
median time to response ([2]; human, in vivo): 1.3 month
tumor growth inhibition (%) or regression (− %) (UM-UC-3; 5 mg/kg BID x28): 45.3%
tumor growth inhibition (%) or regression (− %) (UM-UC-3; 5 mg/kg QD x28): 34.3%
tumor growth inhibition (%) or regression (− %) (UM-UC-3; 10 mg/kg BID x28): 75%
tumor growth inhibition (%) or regression (− %) (UM-UC-3; 10 mg/kg QD x28): 33.6%
tumor growth inhibition (%) or regression (− %) (UM-UC-3; 30 mg/kg BID x28): 85%
tumor growth inhibition (%) or regression (− %) (UM-UC-3; 30 mg/kg QD x28): 83.1%
